Laboratory results taken from patent US20110105579A1, “Plant Health Composition” (priority 2008, published 2011).

Legend:
[1] = tested on: Corn (Zea maydis var. M314A10) seedlings; assay: Cold tolerance of corn seedlings after seed treatment (seedling mortality after exposure to -5° C.); format: in vivo; conditions: for Observed efficacy (%) of cold tolerance GS 10 (3 hrs): % decrease of seedling mortality vs untreated control; for Observed efficacy (%) of cold tolerance GS 10 (3 hrs) / Seedling mortality (mean %) GS 10 (3 hrs): S8 2.5 g a.i./100 kg seed, Ia 1 g a.i./100 kg seed; for Seedling mortality (mean %) GS 10 (3 hrs): corn seed treatment, -5° C. for 3 hrs at growth stage 10, recorded 3 days after cold treatment, control 27
Protocol: Corn (Zea maydis var. M314A10) seeds were treated in a Hege 11 seed treater in a total slurry volume of 1000 ml/100 kg seed. Treatments comprised:
1) Water (control) 2) Pyraclostrobin (S8) (2.5 g a.i./100 kg); 3) Compound Ia (1 g a.i./100 kg); 4) Pyraclostrobin (S8) (2.5 g a.i./100 kg)+compound Ia (1 g a.i./100 kg).
CF Clear Binder (19 ml/100 kg seed) and color coat blue (13 ml/100 kg seed) were added to all treatments including the check. Following seed treatment, seeds were allowed to dry overnight. Seeds were planted in plastic pots (10 cm×10 cm×12 cm). Experiments were conducted using natural soil (sandy loam soil, source NC, U.S.A.). Pots were placed inside the greenhouse in a completely randomized design. Seedlings were grown at 25° C., until they reached growth stages 10 (first leaf through coleoptile, BBCH Scale). At growth stages 10, seedlings were placed in a completely randomized design in a low temperature incubator (Thermo Electron Corporation) and exposed to −5° C. during 3 hrs. At the time of cold exposure, pots were at field capacity. Percentage of seedling mortality for each treatment was recorded 3 days after the cold treatment.
The efficacy of induced cold tolerance (E) was calculated as % decrease of seedling mortality in the treatments compared to the untreated control:
a corresponds to the seedling mortality (%) of the treated plants and b corresponds to the seedling mortality (%) of the untreated (control) plants
The expected efficacy of the combination of the active compounds were estimated using Colby's formula (Colby, S. R., Calculating synergistic and antagonistic responses of herbicide combinations, Weeds, 15, pp. 20-22, 1967) and compared with the observed efficacy.
E=x+y−x·y/100 Colby's formula • E expected efficacy, expressed in % of the untreated control, when using the mixture of the active compounds A and B at the concentrations a and b • x efficacy, expressed in % of the untreated control, when using the active ingredient A at the concentration a • y efficacy, expressed in % of the untreated control, when using the active ingredient B at the concentration b

[2] = tested on: Soybeans, variety TMG 103 RR; assay: Soybean field trial: crop emergence and crop establishment after seed treatment (plant count per 5 m row); format: in vivo; conditions: for Observed efficacy (%) 12 days after planting / Observed efficacy (%) 33 days after planting: increase in number of plants vs control, S6 75, Ia 50 g a.i./100 kg seed; for Number of plants per 5 m distance (mean) 12 days after planting / Number of plants per 5 m distance (mean) 33 days after planting: soybean seed treatment, S6 75 g a.i./100 kg seed, Ia 50 g a.i./100 kg seed; for Number of plants per 5 m distance (mean) 12 days after planting: crop emergence, control 35; for Number of plants per 5 m distance (mean) 33 days after planting: crop establishment, control 34
Protocol: Soybeans were grown in 2008 in the Rondonopolis region, Mato Grosso, Brazil. The variety TMG 103 RR was planted at a seeding rate of 45 kg/ha. The trial was setup as randomized bloc design with 4 replications. Plot size was 10 m^2. The soybean seed was treated prior to planting with either orysastrobin (S6), compound Ia or was left untreated (Control). Compound Ia was used as an FS formulation (100 g a.i./L) with a dose rate of 500 ml/100 kg seed (50 g a.i./100 kg). Orysastrobin (S6) was applied as an FS formulation (250 g a.i./L) with a dose rate of 300 ml per 100 kg seed (75 g a.i./100 kg). In the combination treatments of compound Ia and orysastrobin, both formulations were applied in a sequence. The formulations were applied in a total slurry volume of […] of seed.
The observed efficacy (E) of the compounds on crop emergence and crop establishment as an indicator of plant vitality and plant vigor was determined by counting the plants in a row on a distance of 5 m at 12 and 33 days after planting.
The efficacy of the fungicidal treatments was calculated as the increase in the number of plants in the treatments compared to the control (%):
a corresponds to the number in the treated and b corresponds to the number of plants in the untreated (control) plots
The expected efficacy of the combination of the active compounds was estimated using Colby's formula (see example 1 above)

| SMILES | Observed efficacy (%) of cold tolerance GS 10 (3 hrs) [1] [%] | Seedling mortality (mean %) GS 10 (3 hrs) [1] | seedling mortality, as an indicator of plant vigor (in words) ([1]; vs water control, table 4) | Observed efficacy (%) 12 days after planting [2] [%] | Observed efficacy (%) 33 days after planting [2] [%] | Number of plants per 5 m distance (mean) 12 days after planting [2] | Number of plants per 5 m distance (mean) 33 days after planting [2] | number of plants, as an indicator of plant vigor (in words) ([2]; vs untreated control, table 6) |
| --- | --- | --- | --- | --- | --- | --- | --- | --- |
| Cn1cc(C(=O)Nc2ccccc2-c2cc(F)c(F)c(F)c2)c(C(F)F)n1 [Compound Ia, N-(3′,4′,5′-trifluorobiphenyl-2-yl)-3-difluoromethyl-1-methyl-1H-pyrazole-4-carboxamide] | 15 | 23 (b) % | significantly decreased | 40.0 | 32.3 | 49 | 45 | significantly increased |
| CNC(=O)/C(=N/OC)c1ccccc1CO/N=C(C)/C(=N/OC)C(/C)=N/OC [Orysastrobin (S6), orysastrobin, reference compound] | – | – | – | 57.1 | 52.9 | 55 | 52 | – |
| COC(=O)N(OC)c1ccccc1COc1ccn(-c2ccc(Cl)cc2)n1 [Pyraclostrobin (S8), pyraclostrobin, reference compound] | 22 | 21 (c) % | – | – | – | – | – | – |
